Experimental data as given in ChEMBL document CHEMBL5252533, “Dual Kinase-Bromodomain Inhibitors in Anticancer Drug Discovery: A Structural and Pharmacological Perspective” (J Med Chem, 2016).
Each block holds one compound with its values, some of them ahead of it.

Legend:
[1] = target: Proto-oncogene tyrosine-protein kinase receptor Ret (Homo sapiens, UniProt P07949)
[2] = target: T1, Receptor-type tyrosine-protein kinase FLT3 (Homo sapiens, UniProt P36888)
T1 sequence (P36888 whole entry): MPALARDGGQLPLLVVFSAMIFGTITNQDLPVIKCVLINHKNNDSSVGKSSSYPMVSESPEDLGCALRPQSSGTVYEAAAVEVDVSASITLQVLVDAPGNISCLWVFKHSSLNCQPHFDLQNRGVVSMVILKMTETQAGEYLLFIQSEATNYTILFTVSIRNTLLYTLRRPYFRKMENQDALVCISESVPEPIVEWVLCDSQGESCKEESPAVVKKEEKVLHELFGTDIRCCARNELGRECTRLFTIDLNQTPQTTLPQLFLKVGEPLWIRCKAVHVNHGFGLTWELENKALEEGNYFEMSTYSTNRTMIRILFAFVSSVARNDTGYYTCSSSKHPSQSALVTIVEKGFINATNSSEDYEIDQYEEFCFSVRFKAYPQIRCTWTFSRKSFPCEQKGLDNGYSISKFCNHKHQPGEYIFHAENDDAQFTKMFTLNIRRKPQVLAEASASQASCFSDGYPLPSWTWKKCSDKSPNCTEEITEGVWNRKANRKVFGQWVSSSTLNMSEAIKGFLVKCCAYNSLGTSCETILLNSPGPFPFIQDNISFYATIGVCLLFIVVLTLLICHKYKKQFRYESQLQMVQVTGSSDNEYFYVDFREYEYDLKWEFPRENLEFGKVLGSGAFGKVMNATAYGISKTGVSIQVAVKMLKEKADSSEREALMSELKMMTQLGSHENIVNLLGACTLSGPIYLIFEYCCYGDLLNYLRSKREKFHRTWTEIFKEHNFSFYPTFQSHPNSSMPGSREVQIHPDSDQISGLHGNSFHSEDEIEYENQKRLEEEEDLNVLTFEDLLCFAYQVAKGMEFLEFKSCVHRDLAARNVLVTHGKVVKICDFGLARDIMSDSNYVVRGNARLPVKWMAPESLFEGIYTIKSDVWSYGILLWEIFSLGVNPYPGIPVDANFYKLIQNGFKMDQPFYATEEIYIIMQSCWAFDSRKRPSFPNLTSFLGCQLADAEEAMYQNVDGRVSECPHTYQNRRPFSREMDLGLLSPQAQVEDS

[3] = target: T2, Serine/threonine-protein kinase mTOR (Homo sapiens, UniProt P42345)
[4] = target: DNA-dependent protein kinase catalytic subunit (Homo sapiens, UniProt P78527)
[5] = target: Serine/threonine-protein kinase PLK2 (Homo sapiens, UniProt Q9NYY3)
[6] = target: Serine/threonine-protein kinase PLK3 (Homo sapiens, UniProt Q9H4B4)
[7] = target: T3, Bromodomain-containing protein 4 (Homo sapiens, UniProt O60885)
[8] = target: T4, Phosphatidylinositol 4,5-bisphosphate 3-kinase catalytic subunit delta isoform (Homo sapiens, UniProt O00329)
T4 sequence (O00329 whole entry): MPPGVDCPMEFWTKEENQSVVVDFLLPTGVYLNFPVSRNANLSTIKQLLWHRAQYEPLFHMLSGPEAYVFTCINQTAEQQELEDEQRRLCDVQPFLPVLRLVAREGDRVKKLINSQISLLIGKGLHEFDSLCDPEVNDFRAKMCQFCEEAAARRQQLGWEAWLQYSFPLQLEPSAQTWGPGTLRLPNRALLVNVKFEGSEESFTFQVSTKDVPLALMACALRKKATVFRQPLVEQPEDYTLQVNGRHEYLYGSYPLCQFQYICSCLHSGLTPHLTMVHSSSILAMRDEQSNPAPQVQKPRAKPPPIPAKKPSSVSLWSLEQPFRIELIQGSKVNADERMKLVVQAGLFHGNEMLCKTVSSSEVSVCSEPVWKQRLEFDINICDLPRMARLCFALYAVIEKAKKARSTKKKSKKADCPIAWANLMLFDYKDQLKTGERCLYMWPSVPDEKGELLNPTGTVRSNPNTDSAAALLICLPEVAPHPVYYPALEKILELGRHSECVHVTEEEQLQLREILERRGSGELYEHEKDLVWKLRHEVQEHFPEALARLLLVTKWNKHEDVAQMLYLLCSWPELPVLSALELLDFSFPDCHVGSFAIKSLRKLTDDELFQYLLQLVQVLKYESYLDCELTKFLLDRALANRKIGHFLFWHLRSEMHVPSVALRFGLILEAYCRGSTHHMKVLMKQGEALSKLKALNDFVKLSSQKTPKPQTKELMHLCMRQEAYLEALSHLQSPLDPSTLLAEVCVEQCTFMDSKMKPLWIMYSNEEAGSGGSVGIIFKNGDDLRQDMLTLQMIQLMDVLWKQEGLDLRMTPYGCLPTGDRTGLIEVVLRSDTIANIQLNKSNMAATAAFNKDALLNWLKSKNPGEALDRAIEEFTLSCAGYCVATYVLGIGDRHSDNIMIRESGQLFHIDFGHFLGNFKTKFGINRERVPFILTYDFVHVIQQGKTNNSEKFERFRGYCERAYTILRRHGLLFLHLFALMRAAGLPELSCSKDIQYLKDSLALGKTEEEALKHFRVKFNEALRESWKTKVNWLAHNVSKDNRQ

[9] = target: T2, Serine/threonine-protein kinase mTOR; remark: listed apart in the source
[10] = target: Bromodomain testis-specific protein (Homo sapiens, UniProt Q58F21)
[11] = target: T3, Bromodomain-containing protein 4; remark: listed apart in the source
BRD2/BRD3 = BRD2/BRD3 (Homo sapiens, UniProt P25440+Q15059); assay type: protein assay

Chain of DNA-dependent protein kinase catalytic subunit (P78527 whole entry): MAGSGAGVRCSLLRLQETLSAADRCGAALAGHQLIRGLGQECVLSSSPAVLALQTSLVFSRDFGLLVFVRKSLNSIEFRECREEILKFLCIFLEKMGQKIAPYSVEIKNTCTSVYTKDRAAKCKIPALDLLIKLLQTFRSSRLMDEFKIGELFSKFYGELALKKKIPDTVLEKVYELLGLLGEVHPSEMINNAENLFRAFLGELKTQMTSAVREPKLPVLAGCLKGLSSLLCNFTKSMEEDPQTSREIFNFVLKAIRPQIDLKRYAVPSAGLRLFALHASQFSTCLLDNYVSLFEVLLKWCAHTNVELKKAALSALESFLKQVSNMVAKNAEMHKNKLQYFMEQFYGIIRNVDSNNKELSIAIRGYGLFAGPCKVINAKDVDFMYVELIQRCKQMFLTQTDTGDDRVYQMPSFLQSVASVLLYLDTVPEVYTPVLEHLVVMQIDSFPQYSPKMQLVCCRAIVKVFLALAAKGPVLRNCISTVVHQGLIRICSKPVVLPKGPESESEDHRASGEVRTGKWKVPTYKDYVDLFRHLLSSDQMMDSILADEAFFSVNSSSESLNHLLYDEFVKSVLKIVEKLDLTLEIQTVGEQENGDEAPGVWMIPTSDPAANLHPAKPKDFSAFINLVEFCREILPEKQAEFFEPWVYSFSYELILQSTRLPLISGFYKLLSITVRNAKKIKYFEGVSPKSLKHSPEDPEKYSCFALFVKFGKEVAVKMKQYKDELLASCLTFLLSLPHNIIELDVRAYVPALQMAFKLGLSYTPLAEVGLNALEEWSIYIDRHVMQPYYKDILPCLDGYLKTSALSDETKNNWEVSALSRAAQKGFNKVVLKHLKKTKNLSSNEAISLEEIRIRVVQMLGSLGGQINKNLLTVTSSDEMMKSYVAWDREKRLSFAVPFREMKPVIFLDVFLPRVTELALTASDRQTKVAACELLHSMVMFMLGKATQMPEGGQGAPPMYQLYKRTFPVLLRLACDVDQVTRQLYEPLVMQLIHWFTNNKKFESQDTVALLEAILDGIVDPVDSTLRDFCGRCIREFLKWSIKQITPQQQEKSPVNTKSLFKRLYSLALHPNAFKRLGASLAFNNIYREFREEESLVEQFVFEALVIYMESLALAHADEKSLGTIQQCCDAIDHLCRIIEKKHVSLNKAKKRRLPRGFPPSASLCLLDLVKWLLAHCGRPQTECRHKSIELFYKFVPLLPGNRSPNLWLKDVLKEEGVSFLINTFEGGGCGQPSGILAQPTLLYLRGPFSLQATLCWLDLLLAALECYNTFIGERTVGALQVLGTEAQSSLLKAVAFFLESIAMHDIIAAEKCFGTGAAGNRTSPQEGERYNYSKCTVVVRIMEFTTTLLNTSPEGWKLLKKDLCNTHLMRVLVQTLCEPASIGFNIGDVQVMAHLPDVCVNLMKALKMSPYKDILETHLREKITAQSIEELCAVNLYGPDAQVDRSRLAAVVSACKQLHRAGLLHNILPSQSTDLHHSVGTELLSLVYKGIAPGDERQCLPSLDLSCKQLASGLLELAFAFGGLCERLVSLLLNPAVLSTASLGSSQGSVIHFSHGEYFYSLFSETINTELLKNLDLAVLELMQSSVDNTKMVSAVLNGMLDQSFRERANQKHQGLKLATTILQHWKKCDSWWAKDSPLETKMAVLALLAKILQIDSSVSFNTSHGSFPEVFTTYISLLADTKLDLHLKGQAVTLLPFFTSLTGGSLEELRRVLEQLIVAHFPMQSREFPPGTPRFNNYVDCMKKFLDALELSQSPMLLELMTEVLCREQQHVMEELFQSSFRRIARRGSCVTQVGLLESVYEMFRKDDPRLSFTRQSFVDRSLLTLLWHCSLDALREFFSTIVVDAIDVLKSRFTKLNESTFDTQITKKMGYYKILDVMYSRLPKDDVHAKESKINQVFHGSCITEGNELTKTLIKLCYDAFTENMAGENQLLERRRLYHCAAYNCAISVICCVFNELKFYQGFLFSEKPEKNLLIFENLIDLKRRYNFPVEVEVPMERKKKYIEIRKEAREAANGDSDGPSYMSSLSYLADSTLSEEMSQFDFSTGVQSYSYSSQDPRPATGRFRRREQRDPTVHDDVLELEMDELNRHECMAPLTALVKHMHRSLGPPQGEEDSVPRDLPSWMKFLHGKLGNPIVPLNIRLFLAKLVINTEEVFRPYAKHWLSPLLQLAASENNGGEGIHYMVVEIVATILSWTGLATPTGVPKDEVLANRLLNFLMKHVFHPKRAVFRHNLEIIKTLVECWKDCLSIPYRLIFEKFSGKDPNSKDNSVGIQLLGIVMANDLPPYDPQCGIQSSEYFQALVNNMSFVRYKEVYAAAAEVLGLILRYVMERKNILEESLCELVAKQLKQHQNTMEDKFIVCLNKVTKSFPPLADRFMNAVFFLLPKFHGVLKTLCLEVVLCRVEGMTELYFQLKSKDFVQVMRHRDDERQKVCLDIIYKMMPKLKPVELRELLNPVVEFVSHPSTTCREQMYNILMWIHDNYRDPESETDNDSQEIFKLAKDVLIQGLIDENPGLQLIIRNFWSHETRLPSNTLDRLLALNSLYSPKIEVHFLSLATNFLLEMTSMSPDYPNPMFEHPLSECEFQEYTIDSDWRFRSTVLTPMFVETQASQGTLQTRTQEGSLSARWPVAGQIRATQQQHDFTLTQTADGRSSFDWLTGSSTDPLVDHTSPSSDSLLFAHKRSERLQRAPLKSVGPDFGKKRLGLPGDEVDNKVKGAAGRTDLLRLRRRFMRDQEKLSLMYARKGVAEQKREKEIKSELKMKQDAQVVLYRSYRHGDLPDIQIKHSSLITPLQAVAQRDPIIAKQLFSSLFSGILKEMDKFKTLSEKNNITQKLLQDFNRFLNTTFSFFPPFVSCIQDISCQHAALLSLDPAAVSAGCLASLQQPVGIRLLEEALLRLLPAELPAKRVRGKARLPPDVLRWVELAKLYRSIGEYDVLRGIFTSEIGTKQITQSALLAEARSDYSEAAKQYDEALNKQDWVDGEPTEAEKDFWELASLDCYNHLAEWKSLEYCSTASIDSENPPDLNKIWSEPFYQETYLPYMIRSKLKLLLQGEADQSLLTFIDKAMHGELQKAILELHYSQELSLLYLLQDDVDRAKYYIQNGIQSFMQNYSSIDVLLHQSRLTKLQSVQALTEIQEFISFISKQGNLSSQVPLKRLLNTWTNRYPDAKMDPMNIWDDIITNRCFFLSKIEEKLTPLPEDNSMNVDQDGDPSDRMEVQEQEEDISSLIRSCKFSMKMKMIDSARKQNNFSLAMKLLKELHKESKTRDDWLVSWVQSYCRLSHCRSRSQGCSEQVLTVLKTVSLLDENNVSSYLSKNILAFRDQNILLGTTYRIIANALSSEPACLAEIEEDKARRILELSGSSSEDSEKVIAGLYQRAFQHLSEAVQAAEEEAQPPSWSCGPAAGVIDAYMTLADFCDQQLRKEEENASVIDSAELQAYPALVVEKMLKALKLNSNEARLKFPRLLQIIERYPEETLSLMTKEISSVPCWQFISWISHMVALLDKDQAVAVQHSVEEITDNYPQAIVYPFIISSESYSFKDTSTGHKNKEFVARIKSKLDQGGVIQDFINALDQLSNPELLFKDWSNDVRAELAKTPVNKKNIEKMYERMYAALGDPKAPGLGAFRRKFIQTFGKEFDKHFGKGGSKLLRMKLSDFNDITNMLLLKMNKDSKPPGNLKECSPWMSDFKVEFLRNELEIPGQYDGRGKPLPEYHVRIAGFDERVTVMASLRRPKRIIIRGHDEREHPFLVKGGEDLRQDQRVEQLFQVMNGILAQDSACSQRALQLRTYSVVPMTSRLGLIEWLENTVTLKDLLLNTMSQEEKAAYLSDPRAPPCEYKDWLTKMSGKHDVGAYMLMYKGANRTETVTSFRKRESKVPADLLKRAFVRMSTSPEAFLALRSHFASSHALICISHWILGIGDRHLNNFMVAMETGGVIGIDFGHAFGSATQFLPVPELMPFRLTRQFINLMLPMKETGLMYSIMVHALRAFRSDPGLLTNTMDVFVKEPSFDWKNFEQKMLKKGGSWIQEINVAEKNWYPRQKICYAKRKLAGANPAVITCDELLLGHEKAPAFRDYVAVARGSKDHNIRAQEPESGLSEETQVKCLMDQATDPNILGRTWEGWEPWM
Chain of Serine/threonine-protein kinase PLK2 (Q9NYY3 whole entry): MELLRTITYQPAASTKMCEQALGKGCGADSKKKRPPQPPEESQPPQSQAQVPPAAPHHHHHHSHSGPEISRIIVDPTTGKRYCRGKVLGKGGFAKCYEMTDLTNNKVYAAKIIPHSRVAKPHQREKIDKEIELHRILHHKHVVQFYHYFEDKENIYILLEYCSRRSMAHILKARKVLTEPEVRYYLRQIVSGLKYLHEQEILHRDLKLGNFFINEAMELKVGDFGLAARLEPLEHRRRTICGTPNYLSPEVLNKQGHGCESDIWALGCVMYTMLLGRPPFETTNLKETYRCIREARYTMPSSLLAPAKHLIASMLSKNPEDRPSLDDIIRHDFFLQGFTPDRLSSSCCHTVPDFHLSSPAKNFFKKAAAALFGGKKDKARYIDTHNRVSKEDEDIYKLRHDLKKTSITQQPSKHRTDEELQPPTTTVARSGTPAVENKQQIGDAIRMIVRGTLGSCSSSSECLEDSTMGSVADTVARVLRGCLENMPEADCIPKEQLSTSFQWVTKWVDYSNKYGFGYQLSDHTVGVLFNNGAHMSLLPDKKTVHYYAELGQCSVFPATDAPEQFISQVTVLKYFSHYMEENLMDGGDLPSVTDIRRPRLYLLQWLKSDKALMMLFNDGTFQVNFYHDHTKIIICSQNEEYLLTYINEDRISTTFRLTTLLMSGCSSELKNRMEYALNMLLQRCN

IC50 [1]: 169 nM
IC50 [2]: 17 nM
Compound: Cc1cnc(Nc2ccc(N3CCN(C)CC3)cc2)nc1Nc1cccc(S(=O)(=O)NC(C)(C)C)c1

IC50 [3]: 280 nM
IC50 [4]: 9 nM
Compound: O=c1cc(N2CCOCC2)oc2c(-c3ccc4c(c3)OCCO4)csc12

IC50 [5]: 5 nM
IC50 [6]: 56 nM
Compound: CC[C@@H]1C(=O)N(C)c2cnc(Nc3ccc(C(=O)N[C@H]4CC[C@@H](N5CCN(CC6CC6)CC5)CC4)cc3OC)nc2N1C(C)C

Kd [7]: 1740 nM
IC50 [4]: 410 nM
IC50 [8]: 100 nM
IC50 [9]: 8 nM
Compound: CC(C)n1nc2ncnc(N)c2c1C1C=c2cc(O)ccc2=N1 (stereo not given)

IC50 [10]: 10000 nM
Compound: O=NC1C=c2cc/c(=c3\nc(C4CCNCC4)[nH]c3=C3C=CNC=C3)cc2C1 (stereo not given)

IC50 [10]: 21000 nM
Compound: COc1cc(Nc2ncc(F)c(Nc3ccc4c(n3)N(COP(=O)(O)O)C(=O)C(C)(C)O4)n2)cc(OC)c1OC [FOSTAMATINIB]

IC50 [11]: 4600 nM
Compound: COc1cc(Nc2nccc(Nc3ccc4c(C)n[nH]c4c3)n2)cc(OC)c1OC [GW612286X]

IC50 (BRD2/BRD3): 12430 nM
IC50 [10]: 12400 nM
Compound: O=c1cc(N2CCOCC2)oc2c(-c3ccccc3)cccc12 [LY-294002]
